According to PubChem BioAssay AID328 (DTP/NCI, 2004):
Several values for one entry are separate records, joined by “and”; a condition that tells them apart may be missing. Equal values may be shown once. Toxic doses and inconclusive results are not listed.

Test system: BDF1 mice, P388 leukemia ip, median survival T/C
Assay: NCI In Vivo Anticancer Drug Screen. Data for tumor model P388 Leukemia (intraperitoneal) in B6D2F1 (BDF1) mice
Details: endpoint: median survival time, higher = longer survival
How it was run: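 Vehicle-dosed animals serve as the reference; survival of compound-dosed, tumour-implanted mice is divided by it.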

[1] = dose: 100.0 mg/kg/injection, schedule: Q04DX003 (ip), vehicle: saline with Tween-80
[2] = dose: 200.0 mg/kg/injection, schedule: Q04DX003 (ip), vehicle: saline with Tween-80
[3] = dose: 400.0 mg/kg/injection, schedule: Q04DX003 (ip), vehicle: saline with Tween-80
[4] = dose: 12.5 mg/kg/injection, schedule: Q01DX009 (ip), vehicle: saline
[5] = dose: 25.0 mg/kg/injection, schedule: Q01DX009 (ip), vehicle: saline
[6] = dose: 25.0 mg/kg/injection, schedule: Q04DX003 (ip), vehicle: saline
[7] = dose: 50.0 mg/kg/injection, schedule: Q01DX009 (ip), vehicle: saline
[8] = dose: 100.0 mg/kg/injection, schedule: Q01DX009 (ip), vehicle: saline with Tween-80
[9] = dose: 100.0 mg/kg/injection, schedule: Q01DX009 (ip), vehicle: saline
[10] = dose: 100.0 mg/kg/injection, schedule: Q04DX003 (ip), vehicle: saline
[11] = dose: 25.0 mg/kg/injection, schedule: Q01DX009 (ip), vehicle: saline with Tween-80

CCOC(=O)c1c[nH]c2ccccc2c1=O
T/C (dose: 100.0 mg/kg/injection, schedule: Q04DX002 (ip), vehicle: saline): 107 % of control | T/C (dose: 200.0 mg/kg/injection, schedule: Q04DX002 (ip), vehicle: saline): 111 % of control | T/C (dose: 400.0 mg/kg/injection, schedule: Q04DX002 (ip), vehicle: saline): 102 % of control

C=CCN(CC=C)C(=O)OCC
T/C [1]: 100 % of control | T/C [2]: 120 % of control | T/C [3]: 104 % of control

O=C(CCN1CCCCC1)c1ccccc1
T/C [4]: 89 % of control | T/C [5]: 95 % of control | T/C [6]: 95 % of control

COc1ccc(P(=S)(S)c2ccc(OC)cc2)cc1
T/C (dose: 100.0 mg/kg/injection, schedule: Q01DX009 (ip), vehicle: Klucel (hydroxypropylcellulose) (HPC)): 100 % of control | T/C (dose: 300.0 mg/kg/injection, schedule: Q01DX009 (ip), vehicle: Klucel (hydroxypropylcellulose) (HPC)): 95 % of control

CCCCNC(=S)Nc1sc(C)c(C)c1C(=O)OCC
T/C [1]: 106 % of control | T/C [2]: 99 % of control | T/C [3]: 99 % of control

NC(=O)NNC(N)=O
T/C (dose: 12.5 mg/kg/injection, schedule: Q04DX003 (ip), vehicle: saline): 105 % of control | T/C [5]: 100 % of control | T/C [6]: 116 % of control | T/C [7]: 100 % of control | T/C (dose: 50.0 mg/kg/injection, schedule: Q04DX003 (ip), vehicle: saline): 100 % of control | T/C (dose: 75.0 mg/kg/injection, schedule: Q04DX003 (ip), vehicle: saline): 100 % of control | T/C (dose: 115.0 mg/kg/injection, schedule: Q04DX003 (ip), vehicle: saline): 86 % of control | T/C (dose: 170.0 mg/kg/injection, schedule: Q04DX003 (ip), vehicle: saline): 90 % of control

[O-][n+]1onc2ccc(Cl)cc21
T/C (dose: 12.5 mg/kg/injection, schedule: Q01DX009 (ip), vehicle: Klucel (hydroxypropylcellulose) (HPC)): 100 % of control | T/C (dose: 25.0 mg/kg/injection, schedule: Q01DX009 (ip), vehicle: Klucel (hydroxypropylcellulose) (HPC)): 100 % of control | T/C (dose: 37.5 mg/kg/injection, schedule: Q04DX003 (ip), vehicle: Klucel (hydroxypropylcellulose) (HPC)): 95 % of control | T/C (dose: 50.0 mg/kg/injection, schedule: Q01DX009 (ip), vehicle: Klucel (hydroxypropylcellulose) (HPC)): 95 % of control | T/C (dose: 75.0 mg/kg/injection, schedule: Q04DX003 (ip), vehicle: Klucel (hydroxypropylcellulose) (HPC)): 117 % of control | T/C (dose: 150.0 mg/kg/injection, schedule: Q04DX003 (ip), vehicle: Klucel (hydroxypropylcellulose) (HPC)): 86 % of control

Oc1ccc(C(O)(c2ccccc2)c2ccc(O)c3ccccc23)c2ccccc12
T/C [8]: 95 % of control | T/C (dose: 200.0 mg/kg/injection, schedule: Q01DX009 (ip), vehicle: saline with Tween-80): 103 % of control | T/C (dose: 400.0 mg/kg/injection, schedule: Q01DX009 (ip), vehicle: saline with Tween-80): 110 % of control

CC(OC(=O)Nc1cccc(Cl)c1)C(=O)O (centres undefined)
T/C (dose: 100.0 mg/kg/injection, schedule: Q01DX009 (ip), vehicle: gum acacia): 107 % of control | T/C (dose: 200.0 mg/kg/injection, schedule: Q01DX009 (ip), vehicle: gum acacia): 96 % of control | T/C (dose: 400.0 mg/kg/injection, schedule: Q01DX009 (ip), vehicle: gum acacia): 100 % of control

NC1=C(Cl)C(=O)C(Cl)=C(Cl)C1=O
T/C (dose: 0.39 mg/kg/injection, schedule: Q01DX009 (ip), vehicle: saline): 102 % of control | T/C (dose: 0.78 mg/kg/injection, schedule: Q01DX009 (ip), vehicle: saline): 98 % of control | T/C (dose: 1.56 mg/kg/injection, schedule: Q01DX009 (ip), vehicle: saline): 99 % of control

S=c1cc(-c2ccccc2)ss1
T/C [1]: 110 % of control and 101 % of control | T/C [2]: 115 % of control and 101 % of control | T/C [3]: 108 % of control

Nc1nccnc1C(=O)O
T/C (dose: 12.5 mg/kg/injection, schedule: Q01DX009 (ip), vehicle: water): 102 % of control | T/C (dose: 25.0 mg/kg/injection, schedule: Q01DX009 (ip), vehicle: water): 109 % of control | T/C (dose: 50.0 mg/kg/injection, schedule: Q01DX009 (ip), vehicle: water): 117 % of control | T/C (dose: 100.0 mg/kg/injection, schedule: Q01DX009 (ip), vehicle: water): 105 % of control | T/C (dose: 200.0 mg/kg/injection, schedule: Q04DX003 (ip), vehicle: water): 101 % of control | T/C (dose: 300.0 mg/kg/injection, schedule: Q04DX003 (ip), vehicle: water): 110 % of control | T/C (dose: 400.0 mg/kg/injection, schedule: Q01DX009 (ip), vehicle: water): 109 % of control | T/C (dose: 400.0 mg/kg/injection, schedule: Q04DX003 (ip), vehicle: water): 105 % of control | T/C (dose: 600.0 mg/kg/injection, schedule: Q04DX003 (ip), vehicle: water): 100 % of control

C=C1C(O)C2(O)OCC34C(CC5C(C)=CC(=O)C(O)C5(C)C23)OC(=O)C(O)C14 (centres undefined)
T/C (dose: 0.06 mg/kg/injection, schedule: Q01DX009 (ip), vehicle: saline): 95 % of control | T/C (dose: 0.25 mg/kg/injection, schedule: Q01DX009 (ip), vehicle: saline): 106 % of control | T/C (dose: 1.0 mg/kg/injection, schedule: Q01DX009 (ip), vehicle: saline): 98 % of control

O=C(O)C1CCC[N-]C1.O=C(O)C1CCC[N-]C1.O=C(O)C1CCC[N-]C1.O=C(O)C1CCC[N-]C1.[Cl][Rh][Cl] (centres undefined)
T/C (dose: 4.0 mg/kg/injection, schedule: Q01DX009 (ip), vehicle: saline): 100 % of control | T/C (dose: 8.0 mg/kg/injection, schedule: Q01DX009 (ip), vehicle: saline): 99 % of control | T/C (dose: 10.0 mg/kg/injection, schedule: Q01DX009 (ip), vehicle: saline): 118 % of control | T/C (dose: 16.0 mg/kg/injection, schedule: Q01DX009 (ip), vehicle: saline): 93 % of control | T/C (dose: 20.0 mg/kg/injection, schedule: Q01DX009 (ip), vehicle: saline): 98 % of control | T/C (dose: 40.0 mg/kg/injection, schedule: Q01DX009 (ip), vehicle: saline): 98 % of control | T/C [7]: 100 % of control | T/C [9]: 86 % of control | T/C [10]: 100 % of control | T/C (dose: 200.0 mg/kg/injection, schedule: Q04DX003 (ip), vehicle: saline): 108 % of control | T/C (dose: 400.0 mg/kg/injection, schedule: Q04DX003 (ip), vehicle: saline): 102 % of control

O=C(NCc1cnccn1)c1ccccc1Cl
T/C [1]: 92 % of control | T/C [2]: 104 % of control | T/C [3]: 100 % of control

Cc1cc(Br)c2nsnc2c1[N+](=O)[O-]
T/C (dose: 50.0 mg/kg/injection, schedule: Q01DX005 (ip), vehicle: saline with Tween-80): 118 % of control | T/C (dose: 400.0 mg/kg/injection, schedule: Q01DX005 (ip), vehicle: saline with Tween-80): 118 % of control

CN(C)c1nc(NC(=O)NC(=O)c2c(F)cccc2F)nc(N(C)C)n1
T/C [11]: 88 % of control

CC1=CC(=O)C2=C(C)CCC3C(C)C(=O)OC3C12 (centres undefined)
T/C [1]: 100 % of control | T/C [2]: 111 % of control | T/C [3]: 116 % of control

C(CC1CO1)CC1OC1CC1CO1 (centres undefined)
T/C (dose: 65.0 mg/kg/injection, schedule: Q04DX003 (ip), vehicle: saline): 113 % of control | T/C (dose: 67.0 mg/kg/injection, schedule: Q04DX003 (ip), vehicle: saline with Tween-80): 113 % of control | T/C [1]: 122 % of control | T/C [10]: 109 % of control | T/C (dose: 150.0 mg/kg/injection, schedule: Q04DX003 (ip), vehicle: saline with Tween-80): 181 % of control | T/C (dose: 150.0 mg/kg/injection, schedule: Q04DX003 (ip), vehicle: saline): 154 % of control | T/C (dose: 225.0 mg/kg/injection, schedule: Q04DX003 (ip), vehicle: saline with Tween-80): 181 % of control

CN(CC[N+]1(C)CCCC1)P(=O)(N1CCCC1)N1CCCC1
T/C [7]: 106 % of control | T/C [9]: 101 % of control | T/C (dose: 200.0 mg/kg/injection, schedule: Q01DX009 (ip), vehicle: saline): 109 % of control

C=CCC1CCSC1=O (centres undefined)
T/C (dose: 25.0 mg/kg/injection, schedule: Q04DX003 (ip), vehicle: saline with Tween-80): 100 % of control and 115 % of control | T/C (dose: 50.0 mg/kg/injection, schedule: Q04DX003 (ip), vehicle: saline with Tween-80): 103 % of control and 106 % of control | T/C [1]: 101 % of control and 103 % of control and 119 % of control | T/C [2]: 108 % of control

OCCN1CCN(CC/C=C2/c3ccccc3Sc3ccc(Cl)cc32)CC1
T/C (dose: 5.56 mg/kg/injection, schedule: Q01DX009 (ip), vehicle: saline): 108 % of control | T/C (dose: 8.33 mg/kg/injection, schedule: Q01DX009 (ip), vehicle: saline): 108 % of control | T/C [4]: 120 % of control | T/C [5]: 113 % of control | T/C (dose: 33.0 mg/kg/injection, schedule: Q04DX003 (ip), vehicle: saline): 150 % of control

O=C(O)c1cc2ccccc2o1
T/C [11]: 100 % of control | T/C (dose: 50.0 mg/kg/injection, schedule: Q01DX009 (ip), vehicle: saline with Tween-80): 104 % of control | T/C [8]: 109 % of control
